Assay results reported in the CheMixHub ionic liquid set.

Test: xn = mol fraction of the nth substance listed

CS(=O)(=O)[O-].C[N+](C)(CCO)CCO + O
101 kPa
Details | viscosity [mPa·s]
298.15 K, x1 = 0.1991 | 14.87
303.15 K, x1 = 0.2989 | 29.9
303.15 K, x1 = 0.6984 | 333
313.15 K, x1 = 0.4797 | 62.4
313.15 K, x1 = 0.6984 | 186
318.15 K, x1 = 0.2989 | 17.3
318.15 K, x1 = 0.4797 | 50.1
318.15 K, x1 = 1 | 378
323.15 K, x1 = 0.1991 | 6.85
323.15 K, x1 = 0.4797 | 40.9
323.15 K, x1 = 0.6984 | 112.1
323.15 K, x1 = 1 | 282

O=S(=O)([N-]S(=O)(=O)C(F)(F)F)C(F)(F)F.[Li+] + O
Details | electrical conductivity [S/m] | viscosity [mPa·s]
267.18 K, 100 kPa, x2 = 0.8271 | 1.02 | –
272.15 K, 100 kPa, x2 = 0.8855 | 2.04 | –
282.32 K, 100 kPa, x2 = 0.7538 | 0.699 | –
283 K, 101 kPa, x1 = 0.2649 | 0.62 | –
288.36 K, 100 kPa, x2 = 0.7538 | 0.861 | –
292.1 K, 100 kPa, x1 = 0.0039 | 0.966 | –
292.3 K, 100 kPa, x2 = 0.8065 | 1.98 | –
293 K, 100 kPa, x1 = 0.25 | – | 23.6
293 K, 101 kPa, x1 = 0.2649 | 0.89 | 69.2
296.88 K, 100 kPa, x2 = 0.8271 | 2.71 | –
298 K, 101 kPa, x1 = 0.005377 | 1.2 | 1.11
298 K, 101 kPa, x1 = 0.05933 | 5.79 | 3.11
298 K, 101 kPa, x1 = 0.112 | – | 5.56
298 K, 101 kPa, x1 = 0.1134 | 4.7 | –
298 K, 101 kPa, x1 = 0.1778 | 2.99 | –
298 K, 101 kPa, x1 = 0.2128 | 2.2 | 22.22
298 K, 101 kPa, x1 = 0.2639 | 0.97 | –
298 K, 101 kPa, x1 = 0.2649 | – | 51.3
298.1 K, 101 kPa, x1 = 0.2649 | 1.04 | 55.3
298.15 K, 100 kPa, x1 = 0.112 | – | 5.2
298.15 K, 100 kPa, x1 = 0.1896 | – | 15.8
298.15 K, 100 kPa, x1 = 0.2333 | – | 30.7
298.15 K, 100 kPa, x1 = 0.2547 | – | 42.3
298.15 K, 100 kPa, x1 = 0.2741 | – | 54.1
301.65 K, 100 kPa, x2 = 0.8271 | 3.13 | –
302.07 K, 100 kPa, x2 = 0.7538 | 1.38 | –
302.07 K, 100 kPa, x2 = 0.9148 | 5.85 | –
302.88 K, 100 kPa, x2 = 0.8495 | 4.06 | –
303 K, 101 kPa, x1 = 0.2649 | 1.22 | 45.4
307.05 K, 100 kPa, x2 = 0.8065 | 2.85 | –
307.24 K, 100 kPa, x2 = 0.9761 | 4.9 | –
308.08 K, 100 kPa, x2 = 0.7538 | 1.61 | –
308.15 K, 100 kPa, x1 = 0.112 | – | 4.3
308.15 K, 100 kPa, x1 = 0.1896 | – | 11.5
308.15 K, 100 kPa, x1 = 0.2333 | – | 21.5
308.15 K, 100 kPa, x1 = 0.2547 | – | 29
308.15 K, 100 kPa, x1 = 0.2741 | – | 36.1
312.24 K, 100 kPa, x2 = 0.8065 | 3.3 | –
312.86 K, 100 kPa, x2 = 0.6988 | 0.916 | –
313 K, 101 kPa, x1 = 0.2649 | 1.6 | 30.9
315.76 K, 100 kPa, x2 = 0.7857 | 2.85 | –
317.41 K, 100 kPa, x2 = 0.8271 | 4.37 | –
317.41 K, 100 kPa, x2 = 0.8495 | 5.49 | –
318.15 K, 100 kPa, x1 = 0.112 | – | 3.4
318.15 K, 100 kPa, x1 = 0.1896 | – | 8.6
318.15 K, 100 kPa, x1 = 0.2333 | – | 15.8
318.15 K, 100 kPa, x1 = 0.2547 | – | 20.9
318.15 K, 100 kPa, x1 = 0.2741 | – | 25.5
318.47 K, 100 kPa, x2 = 0.6988 | 1.07 | –
320.96 K, 100 kPa, x2 = 0.7857 | 3.2 | –
321.15 K, 100 kPa, x2 = 0.9761 | 6.42 | –
322.41 K, 100 kPa, x2 = 0.7538 | 2.29 | –
323 K, 101 kPa, x1 = 0.2649 | 2.04 | 21.8
327.61 K, 100 kPa, x2 = 0.8271 | 5.33 | –
327.8 K, 100 kPa, x2 = 0.6988 | 1.36 | –
328.15 K, 100 kPa, x1 = 0.112 | – | 2.8
328.15 K, 100 kPa, x1 = 0.1896 | – | 6.6
328.15 K, 100 kPa, x1 = 0.2333 | – | 12
328.15 K, 100 kPa, x1 = 0.2547 | – | 15.6
328.15 K, 100 kPa, x1 = 0.2741 | – | 18.7
329.06 K, 100 kPa, x2 = 0.7857 | 3.73 | –
331.74 K, 100 kPa, x2 = 0.8271 | 5.85 | –
331.96 K, 100 kPa, x2 = 0.8065 | 4.85 | –
332.16 K, 100 kPa, x2 = 0.8855 | 8.87 | –
332.58 K, 100 kPa, x2 = 0.9148 | 10.1 | –
333 K, 100 kPa, x2 = 0.7538 | 2.85 | –
333 K, 100 kPa, x2 = 0.8495 | 7.06 | –
333 K, 101 kPa, x1 = 0.2649 | 2.58 | 16.2
334.65 K, 100 kPa, x2 = 0.7857 | 4.15 | –
336.52 K, 100 kPa, x2 = 0.8855 | 9.74 | –
339.84 K, 100 kPa, x2 = 0.7857 | 4.6 | –
341.52 K, 100 kPa, x2 = 0.8271 | 6.77 | –
341.94 K, 100 kPa, x1 = 0.0039 | 2.36 | –
342.13 K, 100 kPa, x2 = 0.6601 | 1.19 | –
342.75 K, 100 kPa, x2 = 0.8065 | 5.73 | –
343.17 K, 100 kPa, x2 = 0.7538 | 3.44 | –
347.11 K, 100 kPa, x1 = 0.0039 | 2.52 | –
347.33 K, 100 kPa, x2 = 0.6988 | 2.11 | –
347.53 K, 100 kPa, x2 = 0.9761 | 9.34 | –
347.94 K, 100 kPa, x2 = 0.8495 | 8.69 | –
352.3 K, 100 kPa, x2 = 0.8855 | 11.8 | –
352.92 K, 100 kPa, x2 = 0.8065 | 6.69 | –
356.24 K, 100 kPa, x2 = 0.7857 | 5.78 | –
357.3 K, 100 kPa, x2 = 0.8855 | 12.1 | –
357.7 K, 100 kPa, x2 = 0.9148 | 13.9 | –
